In PMC6308099, “Suramin, screened from an approved drug library, inhibits HuR functions and attenuates malignant phenotype of oral cancer cells” (Cancer Medicine, 2018):

Target: T1, HuR (Homo sapiens, UniProt Q15717)
T1 construct: gene ELAVL1; full-length HuR (326 residues)
Assay: SPR steady state (Biacore T200, immobilized HuR); supported by concentration-dependent positive DSF shift
Format: binding

T1 sequence (Q15717 whole entry): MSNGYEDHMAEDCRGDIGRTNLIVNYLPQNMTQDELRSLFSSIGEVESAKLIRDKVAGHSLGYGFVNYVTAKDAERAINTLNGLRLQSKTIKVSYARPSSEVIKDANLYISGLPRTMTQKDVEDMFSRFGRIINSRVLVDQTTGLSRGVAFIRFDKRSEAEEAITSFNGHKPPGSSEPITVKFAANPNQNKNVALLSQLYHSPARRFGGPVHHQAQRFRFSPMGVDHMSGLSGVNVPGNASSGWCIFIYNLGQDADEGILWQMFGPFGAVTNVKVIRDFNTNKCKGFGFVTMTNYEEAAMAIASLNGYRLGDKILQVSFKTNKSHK

Kd: 240 µM
Structure (SMILES): Cc1ccc(C(=O)Nc2ccc(S(=O)(=O)O)c3cc(S(=O)(=O)O)cc(S(=O)(=O)O)c23)cc1NC(=O)c1cccc(NC(=O)Nc2cccc(C(=O)Nc3cc(C(=O)Nc4ccc(S(=O)(=O)O)c5cc(S(=O)(=O)O)cc(S(=O)(=O)O)c45)ccc3C)c2)c1 [suramin]
